These results are taken from ChEMBL document CHEMBL4118155, “A naphthalene diimide G-quadruplex ligand inhibits cell growth and down-regulates BCL-2 expression in an imatinib-resistant gastrointestinal cancer cell line” (Bioorg Med Chem, 2018).

In experiment [1] the test system is Quadruplex DNA. As to the kind of experiment: Stabilization of 5'-FAM/3'-TAMRA labeled BCL-2 promoter G-quadruplex DNA (unknown origin) assessed as change in melting temperature at 0.5 uM by FRET assay. The class given is nucleic-acid assay.
The next experiment has as its system MCF7. As to the kind of experiment: Antiproliferative activity against human MCF7 cells after 96 hrs by SRB assay. The class given is functional, cell-based. The following applies: MCF7, 96 h.
In the next experiment the test system is dsDNA. The experiment in a line: Stabilization of 5'-FAM/3'-TAMRA labeled duplex DNA (unknown origin) assessed as change in melting temperature at 0.5 uM by FRET assay. It is filed as nucleic-acid assay.
The subject of experiment [2] is Quadruplex DNA. As to the kind of experiment: Stabilization of 5'-FAM/3'-TAMRA labeled c-KIT2 G-quadruplex DNA (unknown origin) assessed as change in melting temperature at 0.5 uM by FRET assay. The class given is nucleic-acid assay.
The nature of experiment [3]: Antiproliferative activity against imatinib-resistant human GIST62 cells after 96 hrs by SRB assay. The class given is functional.
A short description of experiment [4]: Stabilization of 5'-FAM/3'-TAMRA labeled 5'-UTR BCL-2 G-quadruplex RNA (unknown origin) assessed as change in melting temperature at 0.5 uM by FRET assay.
Experiment [5] can be described thus: Antiproliferative activity against imatinib-susceptible human GIST882 cells harboring c-KIT K642E mutant after 96 hrs by SRB assay. It is filed as functional. The conditions noted are these: GIST882, 96 h. Background: In SRB staining, fixed cells bind dye roughly in proportion to their protein.
Experiment [6] has as its system Quadruplex DNA. The experiment in a line: Stabilization of 5'-FAM/3'-TAMRA labeled c-KIT1 G-quadruplex DNA (unknown origin) assessed as change in melting temperature at 0.5 uM by FRET assay. The class given is nucleic-acid assay.
Experiment [7] can be described thus: Antiproliferative activity against imatinib-resistant human GIST48 cells harboring c-KIT V560D/D820A double mutant after 96 hrs by SRB assay. The conditions noted are these: GIST48, 96 h. The class given is functional.
For experiment [8], the system named is Quadruplex DNA. As to the kind of experiment: Stabilization of 5'-FAM/3'-TAMRA labeled human F21T G-quadruplex DNA assessed as change in melting temperature at 0.5 uM by FRET assay. It is filed as nucleic-acid assay.
For the next experiment, the system named is HGC-27. The experiment in a line: Antiproliferative activity against human HGC27 cells after 96 hrs by SRB assay. The conditions noted are these: HGC-27, 96 h. It is filed as functional, cell-based.
Experiment [9] is described as follows: Stabilization of 5'-UTR BCL-2 G-quadruplex RNA (unknown origin) transfected in imatinib-susceptible human GIST882 cells harboring c-KIT K642E mutant assessed as decrease in RNA translation by dual luciferase reporter gene assay. On the technique in general: A reporter such as luciferase makes a cellular process visible.
For experiment [10], the system named is Quadruplex DNA. The experiment in a line: Stabilization of c-KIT G-quadruplex DNA in imatinib-resistant human GIST48 cells harboring c-KIT V560D/D820A double mutant assessed as downregulation of c-KIT protein expression at 1 uM after 1 week by immunoblot analysis relative to control. (Immunoblotting shows a protein as a band on a membrane.)
Experiment [11] deals with Telomerase reverse transcriptase (Homo sapiens) (UniProt O14746). As to the kind of experiment: Inhibition of telomerase activity in imatinib-susceptible human GIST882 cells harboring c-KIT K642E mutant at 0.5 uM incubated for 1 week by Sybr green staining based TRAP-PCR method.
Chain of Telomerase reverse transcriptase (Homo sapiens) (O14746 whole entry): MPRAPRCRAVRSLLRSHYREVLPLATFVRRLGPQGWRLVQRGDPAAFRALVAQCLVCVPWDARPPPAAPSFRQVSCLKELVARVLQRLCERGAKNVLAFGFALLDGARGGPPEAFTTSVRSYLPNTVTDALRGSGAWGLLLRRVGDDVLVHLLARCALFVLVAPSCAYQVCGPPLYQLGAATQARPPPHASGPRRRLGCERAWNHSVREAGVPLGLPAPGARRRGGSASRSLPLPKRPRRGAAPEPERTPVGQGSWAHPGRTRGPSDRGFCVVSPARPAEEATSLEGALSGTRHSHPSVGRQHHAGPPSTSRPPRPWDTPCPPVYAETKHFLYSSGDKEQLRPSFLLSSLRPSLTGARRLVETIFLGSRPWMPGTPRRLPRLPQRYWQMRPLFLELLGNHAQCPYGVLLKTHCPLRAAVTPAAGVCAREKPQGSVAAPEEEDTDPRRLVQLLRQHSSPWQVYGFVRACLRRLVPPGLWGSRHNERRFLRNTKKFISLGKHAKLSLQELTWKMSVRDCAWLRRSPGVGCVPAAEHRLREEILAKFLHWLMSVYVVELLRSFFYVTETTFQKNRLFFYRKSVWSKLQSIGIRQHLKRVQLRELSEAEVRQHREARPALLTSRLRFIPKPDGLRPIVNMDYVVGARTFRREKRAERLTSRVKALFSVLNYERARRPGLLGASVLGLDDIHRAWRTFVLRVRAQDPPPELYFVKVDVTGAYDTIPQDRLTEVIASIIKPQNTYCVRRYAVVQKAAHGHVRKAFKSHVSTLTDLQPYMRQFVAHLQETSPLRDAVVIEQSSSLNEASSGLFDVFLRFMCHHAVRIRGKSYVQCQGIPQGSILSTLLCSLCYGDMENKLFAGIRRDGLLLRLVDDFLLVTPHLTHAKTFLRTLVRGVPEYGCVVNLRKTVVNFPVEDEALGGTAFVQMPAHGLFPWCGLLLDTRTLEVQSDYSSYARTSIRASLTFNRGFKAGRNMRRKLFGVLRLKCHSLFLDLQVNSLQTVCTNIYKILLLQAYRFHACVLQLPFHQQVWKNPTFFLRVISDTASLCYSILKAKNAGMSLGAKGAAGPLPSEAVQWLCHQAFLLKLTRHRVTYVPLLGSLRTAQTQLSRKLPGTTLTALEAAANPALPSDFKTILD
Experiment [12] has as its system Quadruplex DNA. The experiment in a line: Stabilization of c-KIT G-quadruplex DNA in imatinib-resistant human GIST48 cells harboring c-KIT V560D/D820A double mutant assessed as downregulation of c-KIT protein expression at 1 uM after 24 hrs by immunoblot analysis relative to control.
In experiment [13] the test system is Quadruplex DNA. As to the kind of experiment: Stabilization of c-KIT G-quadruplex DNA in imatinib-susceptible human GIST882 cells harboring c-KIT K642E mutant assessed as downregulation of c-KIT protein expression at 1 uM after 24 hrs by immunoblot analysis relative to control.
Experiment [14] can be described thus: Stabilization of 5'-FAM/3'-TAMRA labeled 5'-UTR BCL-2 G-quadruplex RNA (unknown origin) assessed as melting temperature at 0.5 uM in presence of NaCl by FRET assay.
For another experiment, the species on record is Homo sapiens. The experiment in a line: Stabilization of 5'-UTR BCL-2 G-quadruplex RNA in imatinib-resistant human GIST48 cells harboring c-KIT V560D/D820A double mutant at 0.3 uM after 1 week by immunoblot analysis relative to control.
Experiment [15] in a line: Stabilization of 5'-UTR BCL-2 G-quadruplex RNA (unknown origin) transfected in imatinib-susceptible human GIST882 cells harboring c-KIT K642E mutant assessed as decrease in RNA translation at 10 uM by dual luciferase reporter gene assay relative to control. Also noted: scale not given: the % may be the effect or the level left.
The target in experiment [16] is Telomerase reverse transcriptase (Homo sapiens) (UniProt O14746). As to the kind of experiment: Inhibition of telomerase activity in imatinib-resistant human GIST48 cells harboring c-KIT V560D/D820A double mutant at 0.05 to 0.30 uM incubated for 1 week by Sybr green staining based TRAP-PCR method.
The nature of experiment [17]: Stabilization of 5'-FAM/3'-TAMRA labeled 5'-UTR BCL-2 G-quadruplex RNA (unknown origin) assessed as melting temperature at 0.5 uM in presence of KCl by FRET assay.
A further experiment has as its system HT-29. As to the kind of experiment: Antiproliferative activity against human HT-29 cells after 96 hrs by SRB assay. The class given is functional, cell-based. The conditions noted are these: HT-29, 96 h.

Molecules are shown by their SMILES. Calls of active or inactive are those of the source. No cut-off for these calls is given here.

For `Cc1ccc(NC(=O)c2ccc(CN3CCN(C)CC3)cc2)cc1Nc1nccc(-c2cccnc2)n1` [IMATINIB], the ΔTm with Quadruplex DNA [1] is 0.1 °C; with dsDNA, 0.1 °C; in the experiment with Quadruplex DNA [2], 0.2 °C; in experiment [4], 0.1 °C; in the experiment with Quadruplex DNA [6], 0.2 °C; in the experiment with Quadruplex DNA [8] it was 0.2 °C. For the same compound, the IC50 is 11300 nM in the experiment with MCF7, greater than 25000 nM in [3], 1700 nM in [5] and 19800 nM in experiment [7].

Regarding `CN(C)c1ccc(Nc2c3ccc(NC(=O)CCN4CCCC4)cc3nc3cc(NC(=O)CCN4CCCC4)ccc23)cc1`, the ΔTm in the experiment on Quadruplex DNA [1] worked out at 17.9 °C; in the experiment with dsDNA it was 7.2 °C; with Quadruplex DNA [2] it was 18.5 °C; in the experiment with Quadruplex DNA [6], 6.5 °C; with Quadruplex DNA [8], 21.6 °C. Also, the IC50 in [3] was greater than 25000 nM; in experiment [5] it was greater than 25000 nM; in experiment [7], greater than 25000 nM; in the experiment with HGC-27, 2300 nM.

In the case of `O=C1c2cc(NCCN3CCCC3)c3c4c(cc(NCCN5CCCC5)c(c24)C(=O)N1CCN1CCCC1)C(=O)N(CCN1CCCC1)C3=O`, the ΔTm turned out to be 27.6 °C in the experiment with Quadruplex DNA [1]; 3.5 °C in the experiment with dsDNA; 29 °C with Quadruplex DNA [2]; 10.7 °C in experiment [4]; 11.2 °C with Quadruplex DNA [6]; 29.7 °C in the experiment with Quadruplex DNA [8]. The Activity entry in experiment [9] was “Dose-dependent effect”; in the experiment on Quadruplex DNA [10], 37%; in the experiment with Quadruplex DNA [12] it was 17%; with Quadruplex DNA [13] it was 90%; in the experiment listed under Homo sapiens, 85%; in experiment [15] it was 30%. Further, the IC50 amounted to 400 nM in [3]; 1600 nM in [5]; 500 nM in experiment [7]; 100 nM in the experiment on HGC-27; 40 nM in the experiment on HT-29. In experiment [11], the inhibition result was “Active”. Moreover, the Tm in [14] amounted to 64.5 °C; in experiment [17], 91 °C. Further, the inhibition entry in experiment [16] is “inactive”.

As usually defined, the ΔTm is the change in melting temperature against a reference sample. As a reminder, the IC50 is the concentration at which inhibition is half-maximal.
